Reference: ChEMBL document CHEMBL1144641, “DNA cleavage promoted by 2,9-dimethyl-4,7-diazadecane-2,9-dithiol (DDD) derivatives” (Bioorg Med Chem Lett, 2007)
Active and inactive are the calls of the source. No cut-off for these calls is given here.

Assays:
Assay type in all cases: nucleic-acid assay
Details in all cases: Escherichia coli
Nucleic Acid [1] = assay: DNA cleavage activity assessed as conversion of supercoiled pUC19 plasmid to nicked form at pH 7 after 24 hrs
Nucleic Acid [2] = assay: DNA cleavage activity assessed as conversion of supercoiled pUC19 plasmid to nicked form at pH 7 after 24 hrs in presence of sodium iodide
Nucleic Acid [3] = assay: DNA cleavage activity assessed as conversion of supercoiled pUC19 plasmid to nicked form at pH 7 after 24 hrs in presence of tertiary-butyl alcohol
Nucleic Acid [4] = assay: DNA cleavage activity assessed as conversion of supercoiled pUC19 plasmid to nicked form at pH 7 after 24 hrs in presence of sodium azide
Nucleic Acid [5] = assay: DNA cleavage activity assessed as conversion of supercoiled pUC19 plasmid to nicked form at pH 7 after 24 hrs in presence of hydrogen peroxide
Nucleic Acid [6] = assay: DNA cleavage activity assessed as conversion of supercoiled pUC19 plasmid to nicked form at 0.286 mM at pH 7 after 24 hrs
Nucleic Acid [7] = assay: DNA cleavage activity assessed as conversion of supercoiled pUC19 plasmid to nicked form at pH 7 after 1 hr
Nucleic Acid [8] = assay: DNA cleavage activity assessed as conversion of supercoiled pUC19 plasmid to nicked form at pH 7 after 12 hrs

CC1CC(C)CN(CCN(CCNCC(C)(C)S)CC(C)(C)S)C1 (stereo not given)
Activity (Nucleic Acid [1]): 48.2%

CC(C)(S)CNCCN(CCN1CCCCC1)CC(C)(C)S
Activity (Nucleic Acid [1]): 74.8%

CC1CCN(CCN(CCNCC(C)(C)S)CC(C)(C)S)CC1
Activity (Nucleic Acid [1]): 100% | Activity (Nucleic Acid [2]): inactive | Activity (Nucleic Acid [3]): inactive | Activity (Nucleic Acid [4]): inactive | Activity (Nucleic Acid [5]): Active | Activity (Nucleic Acid [6]): Active | Activity (Nucleic Acid [7]): 30.9% | Activity (Nucleic Acid [8]): 40.4%
